According to ChEMBL document CHEMBL4396947, “Synthesis and characterization of novel isoform-selective IP6K1 inhibitors” (Bioorg Med Chem Lett, 2019):

Legend:
Homo sapiens [1] = species: Homo sapiens; assay: Inhibition of recombinant human MAPKAPK2 A399G mutant (46 to end residues) assessed as residual activity at 10 uM using KKLNRTLSVA as substrate incubated for 40 mins in presence of [gamma-33P]ATP at Km concentration by radiometric assay relative to control
[2] = molecular target: Serine/threonine-protein kinase pim-1 (Homo sapiens) (UniProt P11309); assay: Inhibition of recombinant full length human PIM1 assessed as residual activity at 10 uM using KKRNRTLTV as substrate incubated for 40 mins in presence of [gamma-33P]ATP at Km concentration by radiometric assay relative to control
Homo sapiens [3] = species: Homo sapiens; assay: Inhibition of recombinant human PAK2 L150F/P225T/A339 deletion/V383I mutant (3 to end residues) assessed as residual activity at 10 uM using KEAKEKRQEQIAKR as substrate incubated for 40 mins in presence of [gamma-33P]ATP at Km concentration by radiometric assay relative to control
Homo sapiens [4] = species: Homo sapiens; assay: Inhibition of recombinant full-length human AURKA I31F mutant assessed as residual activity at 10 uM using LRRASLG as substrate incubated for 40 mins in presence of [gamma-33P]ATP at Km concentration by radiometric assay relative to control
[5] = molecular target: CDK6/cyclin D3 (Homo sapiens) (UniProt P30281+Q00534); assay: Inhibition of human full length recombinant CDK6/cyclinD3 assessed as residual activity at 10 uM using Histone H1 as substrate incubated for 40 mins in presence of [gamma-33P]ATP at Km concentration by radiometric assay relative to control; type: protein-complex assay
Homo sapiens [6] = species: Homo sapiens; assay: Inhibition of recombinant full length human PI3K p110delta/p85alpha N253S mutant assessed as residual activity at 10 uM incubated for 40 mins in presence of [gamma-33P]ATP at Km concentration by radiometric assay relative to control
[7] = molecular target: Mitogen-activated protein kinase kinase kinase 5 (Homo sapiens) (UniProt Q99683); assay: Inhibition of recombinant human ASK1 (649 to 946 residues) assessed as residual activity at 10 uM using myelin basic protein as substrate incubated for 40 mins in presence of [gamma-33P]ATP at Km concentration by radiometric assay relative to control
Mitogen-activated protein kinase kinase kinase 5 (Homo sapiens), sequence (Q99683 whole entry, the tested form may be a part): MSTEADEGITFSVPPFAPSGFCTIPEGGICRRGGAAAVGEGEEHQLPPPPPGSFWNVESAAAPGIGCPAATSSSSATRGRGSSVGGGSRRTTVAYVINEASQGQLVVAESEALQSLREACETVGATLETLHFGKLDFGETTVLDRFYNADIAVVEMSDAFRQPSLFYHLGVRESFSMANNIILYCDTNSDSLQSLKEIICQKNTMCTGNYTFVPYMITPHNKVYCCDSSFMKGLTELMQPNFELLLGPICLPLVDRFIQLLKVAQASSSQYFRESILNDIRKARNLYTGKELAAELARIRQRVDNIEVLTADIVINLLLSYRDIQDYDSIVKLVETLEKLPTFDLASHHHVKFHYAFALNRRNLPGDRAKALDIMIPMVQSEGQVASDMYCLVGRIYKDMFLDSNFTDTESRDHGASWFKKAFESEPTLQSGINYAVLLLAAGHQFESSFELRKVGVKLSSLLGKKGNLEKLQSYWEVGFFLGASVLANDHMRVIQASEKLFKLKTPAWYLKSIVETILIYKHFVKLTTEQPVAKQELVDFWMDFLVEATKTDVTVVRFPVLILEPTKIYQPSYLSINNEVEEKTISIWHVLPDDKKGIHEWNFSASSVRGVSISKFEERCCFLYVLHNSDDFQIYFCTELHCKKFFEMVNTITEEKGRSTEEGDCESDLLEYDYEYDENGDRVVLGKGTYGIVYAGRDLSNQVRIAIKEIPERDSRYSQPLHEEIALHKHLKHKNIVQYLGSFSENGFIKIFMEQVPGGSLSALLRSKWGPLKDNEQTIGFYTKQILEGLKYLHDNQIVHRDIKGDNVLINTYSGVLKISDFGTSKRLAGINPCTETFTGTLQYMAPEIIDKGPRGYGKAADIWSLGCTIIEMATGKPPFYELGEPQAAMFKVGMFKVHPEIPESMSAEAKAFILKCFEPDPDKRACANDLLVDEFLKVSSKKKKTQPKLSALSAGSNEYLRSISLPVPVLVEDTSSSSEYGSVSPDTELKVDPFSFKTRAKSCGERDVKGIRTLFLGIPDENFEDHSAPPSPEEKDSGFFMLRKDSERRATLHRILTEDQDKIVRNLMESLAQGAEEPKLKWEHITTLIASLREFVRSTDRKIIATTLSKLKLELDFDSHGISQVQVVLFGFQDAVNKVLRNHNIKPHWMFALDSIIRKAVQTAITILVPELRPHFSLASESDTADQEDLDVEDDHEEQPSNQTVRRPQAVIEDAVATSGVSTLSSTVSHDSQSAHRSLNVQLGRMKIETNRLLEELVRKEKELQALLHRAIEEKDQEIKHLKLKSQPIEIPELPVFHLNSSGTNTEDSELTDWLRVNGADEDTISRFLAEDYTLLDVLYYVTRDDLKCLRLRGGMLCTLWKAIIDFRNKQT

Serine/threonine-protein kinase pim-1 (Homo sapiens), sequence (P11309 whole entry, looked up): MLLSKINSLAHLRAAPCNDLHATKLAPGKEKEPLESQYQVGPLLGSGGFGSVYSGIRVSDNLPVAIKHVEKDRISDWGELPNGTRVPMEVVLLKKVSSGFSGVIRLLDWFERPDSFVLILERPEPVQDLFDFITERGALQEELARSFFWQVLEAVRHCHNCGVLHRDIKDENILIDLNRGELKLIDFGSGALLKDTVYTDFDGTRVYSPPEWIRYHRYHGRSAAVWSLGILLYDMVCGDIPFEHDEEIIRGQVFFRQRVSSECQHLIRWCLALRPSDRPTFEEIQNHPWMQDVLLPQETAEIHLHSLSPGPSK

Q: COc1ccc2c(CCNc3nc(NCc4ccc(=O)[nH]c4)c4nc[nH]c4n3)c[nH]c2c1 was tested. Which Activity (Homo sapiens [1]) did it give?
A: 102%

Q: And the Activity [2]?
A: 82%

Q: And the Activity (Homo sapiens [3])?
A: 98%

Q: And the Activity (Homo sapiens [4])?
A: 46%

Q: And the Activity [5]?
A: 82%

Q: What about the Activity (Homo sapiens [6]) of the same molecule?
A: 95%

Q: What about the Activity [7] of the same molecule?
A: 72%
